The results in this text go back to patent US20100099897A1, “STABLE ANHYDROUS CRYSTALLINE DOCETAXEL AND METHOD FOR THE PREPARATION THEREOF” (HANMI PHARM. CO., LTD., priority 2007, published 2010).

A short description of data set [1]: Stability under a high temperature/humidity condition (HPLC purity after aging). In kind it is physicochemical. The settings on record: for Purity after 1 week / Purity after 2 weeks / Purity after 4 weeks / Initial purity / Purity after 8 weeks: HPLC; for Initial purity: before aging. On the procedure:
The long-term storage stabilities of anhydrous crystalline forms of docetaxel prepared in Examples 1, 4, 5, and 6, respectively were compared with that of docetaxel trihydrate prepared according to the method of U.S. Pat. No. 6,022,985 by subjecting sample thereof to aging under a high temperature/humidity condition (60±2° C.; 75±5% relative humidity). The amounts of the original compound in each sample after 1, 2, 4 and 8 weeks were determined by high performance liquid chromatography (HPLC).

Data set [2] can be described thus: Storage for 7 days at 40° C. under a relative humidity of 25% to 50%. In kind it is physicochemical. The settings on record: comparable condition: 7 days, relative humidity 25% to 50%.
[3] abbreviates: 60±2° C., 75±5% relative humidity.

Molecules are shown by their SMILES.

For `CC(=O)O[C@@]12CO[C@@H]1C[C@H](O)[C@@]1(C)C(=O)[C@H](O)C3=C(C)[C@@H](OC(=O)[C@H](O)[C@@H](NC(=O)OC(C)(C)C)c4ccccc4)C[C@@](O)([C@@H](OC(=O)c4ccccc4)[C@H]21)C3(C)C` [Docetaxel trihydrate, docetaxel trihydrate, reference compound], in data set [1] (setting [3]), the “Purity after 1 week” value was 99.3%, the “Purity after 2 weeks” value is 99.0% and the “Purity after 4 weeks” value was 98.7%. For the same molecule, in data set [1] (60±2° C., 75±5% relative humidity, up to 8 weeks), the “Storage stability under a high temperature/humidity condition (in words)” value is recorded as “rapid degradation”. The same molecule showed an Initial purity in data set [1] of 99.4%. Further, the Dehydration during storage result in data set [2] is listed as “at least 50%”.
With `CC(=O)O[C@@]12CO[C@@H]1C[C@H](O)[C@@]1(C)C(=O)[C@H](O)C3=C(C)[C@@H](OC(=O)[C@H](O)[C@@H](NC(=O)OC(C)(C)C)c4ccccc4)C[C@@](O)([C@@H](OC(=O)c4ccccc4)[C@H]21)C3(C)C` [Example 1, docetaxel], in data set [1] (setting [3]), the “Purity after 1 week” value is 99.8%, the “Purity after 2 weeks” value was 99.8%, the “Purity after 4 weeks” value is listed as 99.7% and the “Purity after 8 weeks” value was determined as 99.6%. Besides, the Initial purity in data set [1] amounted to 99.8%.
For the molecule `CC(=O)O[C@@]12CO[C@@H]1C[C@H](O)[C@@]1(C)C(=O)[C@H](O)C3=C(C)[C@@H](OC(=O)[C@H](O)[C@@H](NC(=O)OC(C)(C)C)c4ccccc4)C[C@@](O)([C@@H](OC(=O)c4ccccc4)[C@H]21)C3(C)C` [Example 4, docetaxel], in data set [1] (setting [3]), the “Purity after 1 week” value came out at 99.8%, the “Purity after 2 weeks” value was found to be 99.7%, the “Purity after 4 weeks” value amounted to 99.6% and the “Purity after 8 weeks” value worked out at 99.5%. The Initial purity in data set [1] worked out at 99.8%.
On to `CC(=O)O[C@@]12CO[C@@H]1C[C@H](O)[C@@]1(C)C(=O)[C@H](O)C3=C(C)[C@@H](OC(=O)[C@H](O)[C@@H](NC(=O)OC(C)(C)C)c4ccccc4)C[C@@](O)([C@@H](OC(=O)c4ccccc4)[C@H]21)C3(C)C` [Example 5, docetaxel], for which, in data set [1] (setting [3]), the “Purity after 1 week” value is reported as 99.7%, the “Purity after 2 weeks” value is recorded as 99.7%, the “Purity after 4 weeks” value is on record as 99.6% and the “Purity after 8 weeks” value is recorded as 99.6%. For the same molecule, the Initial purity in data set [1] is recorded as 99.7%.
`CC(=O)O[C@@]12CO[C@@H]1C[C@H](O)[C@@]1(C)C(=O)[C@H](O)C3=C(C)[C@@H](OC(=O)[C@H](O)[C@@H](NC(=O)OC(C)(C)C)c4ccccc4)C[C@@](O)([C@@H](OC(=O)c4ccccc4)[C@H]21)C3(C)C` [Example 6, docetaxel]: in data set [1] (setting [3]), the “Purity after 1 week” value is 99.7%, the “Purity after 2 weeks” value turned out to be 99.7%, the “Purity after 4 weeks” value is 99.6% and the “Purity after 8 weeks” value was 99.5%. The molecule further displayed an Initial purity in data set [1] of 99.7%.
